Columns and labels:
gammaglobin = test: Effect of isobutyramide on percentage of gammaglobin to total gamma plus betaglobin in anemic baboons in vivo; design: species or system baboon (Papio anubis)
Protocol: (§1) Adult, male baboons (Papio anubis) were used as experimental animals. Three baboons were rendered anemic by daily phlebotomy for at least about 30 days, and maintained at hematocrit values of about 22% by daily phlebotomy. Each anemic baboon was treated with isobutyramide. One baboon (no. 767) received isobutyramide by oral formulation of 150 mg isobutyramide per ml of distilled sterile water administered through a naso-gastric tube three times per week for three weeks. This baboon received isobutyramide at a dosage of 600 mg per kg of body weight. Another baboon (no. 224) received isobutyramide by parenteral formulation of 150 mg isobutyramide per ml of distilled sterile water administered by intravenous infusion over a 30 minute period one time per day for three weeks. This baboon received isobutyramide at a dosage of 500 mg per kg of body weight. Another baboon (no. 207) received isobutyramide by parenteral formulation of 150 mg isobutyramide per ml of distilled sterile water administered by intravenous infusion over a 30 minute period one time per day for three days. This baboon received isobutyramide at a dosage of 500 mg per kg of body weight. The experiment was terminated with this baboon after three days due to an infection. Blood samples were taken throughout the course of treatment. Samples were assayed to determine the percentage of gammaglobin to total gamma-globin and betaglobin (Table 1) and the percentage of total reticulocytes containing gammaglobin, sometimes called "F-retics" (Table 2). The assay to measure the percentage of gammaglobin to total gamma-globin and betaglobin was by the method described in Perrine, S. P., et al., Delay In The Fetal Globin Switch In Infants Of Diabetic Mothers, New Eng. J. Med. vol.312, pp.334-338 (1985). The assay to measure the percentage of total reticulocytes containing gammaglobin was performed by the method described in Rogers, G., et al., Hematologic Response of Patients with Sickle Cell Disease To Treatment with Hydroxyurea, New Eng. J. Med., vol.322, pp.1037-1045 (1990).

[1] = standard assays; cited from earlier work
[2] = tested on: erythroid progenitors from peripheral blood; test: Effect of isobutyramide in vitro on percentage of gammaglobin to total gamma plus betaglobin in cultured erythroid progenitors; format: cell-based, human; details: 0.2 mM, about 14 days
Protocol: Cultures of erythroid progenitors from peripheral blood of patients having a betaglobin disorder and normal subjects were cultured for about 14 days in presence of 0.2 millimoles per liter ("mM") isobutyramide and the percentages of gammaglobin to total gamma plus betaglobin were assayed substantially according to the methods described in Perrine, S. P. et al., Sodium Butyrate Enhances Fetal Globin Gene Expression in Erythroid Progenitors of Patients With Hb SS and Beta Thalassemia, Blood, vol.74, pp.454-459 (1989). The patients with sickle-cell anemia are identified as "SS" and with beta-thalassemia as "beta-thal." Ages are specified in years.

[3] = administered in therapeutically effective amounts; cited from earlier work
[4] = tested on: reticulocytes containing gammaglobin (F-retics); test: Effect of isobutyramide on percentage of F-retics to total reticulocytes in anemic baboons in vivo; design: species or system baboon (Papio anubis)
Protocol: as §1

[5] = species not given; cited from earlier work
[6] = Plasma levels of isobutyramide after administration; format: in vivo, baboon and human
Protocol: Adult, male baboons (Papio anubis) were used as experimental animals. Three baboons were rendered anemic by daily phlebotomy for at least about 30 days, and maintained at hematocrit values of about 22% by daily phlebotomy. Each anemic baboon was treated with isobutyramide. One baboon (no. 767) received isobutyramide by oral formulation of 150 mg isobutyramide per ml of distilled sterile water administered through a naso-gastric tube three times per week for three weeks. This baboon received isobutyramide at a dosage of 600 mg per kg of body weight. Another baboon (no. 224) received isobutyramide by parenteral formulation of 150 mg isobutyramide per ml of distilled sterile water administered by intravenous infusion over a 30 minute period one time per day for three weeks. This baboon received isobutyramide at a dosage of 500 mg per kg of body weight. […]
Isobutyramide was administered orally to the baboon (no.767) and parenterally to another baboon (no.224) as described in Example 3. The plasma concentrations of the isobutyramide at various times after a single oral dose to those baboons are shown in FIG. 1 (measured by gas liquid chromatography and expressed in millimoles per liter ("mM")). […]

With `CC(C)C(N)=O` [isobutyramide, Isobutyramide] the “production of fetal hemoglobin in vivo” value (gammaglobin; anemic baboons, Tables 1 and 2) was “significantly stimulated the production of fetal hemoglobin”, the “Percentage of gammaglobin to total gamma plus betaglobin, treatment (highest achieved)” value (“Percentage of gammaglobin … (highest achieved)” below) (gammaglobin; baboon 207, 500 mg per kg i.v. infusion over 30 min, once per day for three days, pre-treatment 0) was 9% and the “Percentage of gammaglobin … (highest achieved)” value (gammaglobin; baboon 224, 500 mg per kg i.v. infusion over 30 min, once per day for three weeks, pre-treatment 2) was 11%. For the same compound, the “Percentage of gammaglobin … (highest achieved)” value (gammaglobin; baboon 767, 600 mg per kg oral (naso-gastric tube), three times per week for three weeks, pre-treatment 3) was 12%, the mutagenicity [1] was “not mutagenic” and the “production of fetal hemoglobin in culture” value ([2]; Table 3) was “significantly stimulated the production of fetal hemoglobin in culture”. For the same compound, the “Percentage of gammaglobin to total gamma plus betaglobin, treatment” value ([2]; SS (sickle-cell anemia), age 10-11, pre-treatment 22) was 40%, the “Percentage of gammaglobin to total gamma plus betaglobin, treatment” value ([2]; SS (sickle-cell anemia), pre-treatment 17) was 96% and the “Percentage of gammaglobin to total gamma plus betaglobin, treatment” value ([2]; SS (sickle-cell anemia), pre-treatment 42) was 55%. For the same compound, the “Percentage of gammaglobin to total gamma plus betaglobin, treatment” value ([2]; SS (sickle-cell anemia), pre-treatment 70) was 78%, the “Percentage of gammaglobin to total gamma plus betaglobin, treatment” value ([2]; beta-thal, newborn, pre-treatment 40) was 50% and the “Percentage of gammaglobin to total gamma plus betaglobin, treatment” value ([2]; beta-thal, pre-treatment 65) was 98%. The “Percentage of gammaglobin to total gamma plus betaglobin, treatment” value ([2]; beta-thal, pre-treatment 70) was 64%, the “Percentage of gammaglobin to total gamma plus betaglobin, treatment” value ([2]; normal, newborn, pre-treatment 5) was 45% and the “Percentage of gammaglobin to total gamma plus betaglobin, treatment” value ([2]; normal, newborn, pre-treatment 20) was 26%. For the same compound, the “Percentage of gammaglobin to total gamma plus betaglobin, treatment” value ([2]; normal, newborn, pre-treatment 69) was 72%, the toxicity [3] was “substantially non-toxic” and the “Percentage of F-retics to total reticulocytes, treatment” value (from here on “Percentage of F-retics”) ([4]; baboon 207, 500 mg per kg i.v. infusion over 30 min, once per day for three days, pre-treatment 3) was 15%. The “Percentage of F-retics” value ([4]; baboon 224, 500 mg per kg i.v. infusion over 30 min, once per day for three weeks, pre-treatment 16) was 27%, the “Percentage of F-retics” value ([4]; baboon 767, 600 mg per kg oral (naso-gastric tube), three times per week for three weeks, pre-treatment 13) was 17% and the “acute intravenous LD 50” value [5] was “about 3 g per kilogram”. For the same compound, the plasma levels ([6]; oral and parenteral administration) was “sufficient to yield therapeutic effects” and the half-life ([6]; plasma, after oral or parenteral administration, species not specified (baboons and humans)) was 7.6 to 10.5 h.

Reference: patent US5439939A, “Pharmaceutical compositions and methods using isobutyramide for treating betaglobin disorders” (Children's Hospital Medical Center of Northern California, priority 1992, dated 1995)
